In one assay the test system is Saos-2 (HPV−) cells. Briefly: Cell proliferation/viability assay, Saos-2 cells. Format: cell-based. To be noted: Homo sapiens, SAOS-2, 96 h, read-out: Saos-2 (HPV−) Proliferation IC50 (μM). The gist of the method: (§1)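 Cells plated in antibiotic-free growth medium, compound added 2 h later (0.5% DMSO final) and incubated 4 days at 37 °C. Viability by CellTiter Blue (ex 530/em 590 nm) or CellTiter Glo luminescence; IC50 from four-parameter logistic fit of % inhibition.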

In another assay the test system is C33A (HPV−) cells. Briefly: Cell proliferation/viability assay, C33A cells. The settings on record: Homo sapiens, C-33-A, 96 h, read-out: C33A (HPV−) Proliferation IC50 (μM). Format: cell-based. The gist of the method: as §1

Among the data in patent publication US10517870B2, “Aryl substituted bicycle heteroaryl compounds” (Bristol-Myers Squibb Company, priority 2015, dated 2019) are IC50 values, retold here.

Molecules are shown by their SMILES.

As to `COc1ccc(-c2cc(C)cc3nc(OC(F)F)cnc23)cc1` [Example 6, 2-(difluoromethoxy)-5-(4-methoxyphenyl)-7-methylquinoxaline], the IC50 in the assay with Saos-2 (HPV−) cells is 48 µM; with C33A (HPV−) cells, 44.8 µM.
